The source of these data is patent US11478551B2, “Long-acting adrenomedullin derivative” (University of Miyazaki, priority 2015, dated 2022).

The subject of assay [1] is TNBS-induced colitis models. In words: 2,4,6-trinitrobenzenesulfonic acid (TNBS)-induced colitis model. Format: in vivo. Particulars: 1 nmol/kg subcutaneous, rat. The protocol: 7-week-old male Wistar rats were acclimatized for 1 week. […] Fasting was carried out for 24 hours concurrently with the subcutaneous administration to remove stool from the body. Colitis models were prepared by procedures described below. The concentration of TNBS (Nacalai Tesque, Inc.) was adjusted to 30 mg/500 μL (in a 50% aqueous ethanol solution). 50 mg of pentobarbital was intraperitoneally administered, and a polyethylene catheter was inserted by 8 cm from the anus under anesthesia while slowly rotated, followed by injection of 500 μL of the drug solution (day 1). Then, the inverted state was maintained for 2 minutes. The body weight and the form of diarrhea were evaluated every day. 14 days later, 50 mg of pentobarbital was intraperitoneally administered, and blood collection from the heart and excision of the large intestine were carried out under anesthesia. The length and weight of the excised intestinal tract were measured and compared between the groups. […] In the diagram, (a) depicts the day on which the compound (8) or physiological saline was subcutaneously administered and fasting was started, and (b) depicts the day on which TNBS was administered.

The subject of the next assay is wound models. In words: Wound model. The class given is in vivo, mouse. Particulars: 1 nmol/kg subcutaneous single dose, BALB/c-nu/nu mice. How it is done:
5-week-old male BALB/c-nu/nu mice (Charles River Laboratories Japan, Inc.) were purchased and acclimatized for 1 week. Then, 5 mg of pentobarbital was intraperitoneally administered to each mouse for anesthesia. The skin was disinfected using ethanol for disinfection. The skin of the back was pulled with fingers with the mouse in the lateral position, and pressed and cut with a round knife for skin biopsy (disposable biopsy punch with plunger system) from one side toward the other side on a disinfected mat for drafting to prepare two defective injuries each having a diameter of 6 mm. […] Physiological saline was administered as a vehicle to a control group. A dressing was applied to cover the back including the wound sites. Change in the wound areas were observed over time.

Take “GL-2-branched CH3O-PEG (60k)-CH2-^αNH-(h.AM (1-52)) [Compound (8)]”: in assay [1], the “pathological changes of the large intestine (autopsy report)” value is given as “evidently fewer” and the “weight loss due to the development of colitis” value is on record as “improved”. Besides, in assay [1] (14 days later), the “decrease in the intestinal tract length of the large intestine compared to the vehicle control group” value is on record as “evidently suppressed” and the “increase in the weight of the large intestine compared to the vehicle control group” value was “evidently suppressed”. Besides, the “reduction in the wound areas compared to the vehicle control group” value in the assay on wound models is on record as “faster”.
